Source: patent US20040162263A1, “Pharmaceutical formulations targeting specific regions of the gastrointesinal tract” (priority 2002, published 2004)
Values joined by “and” are separate entries in the source; they are usually repeats but may differ in a detail not shown here. Identical values can stand only once. Like-named read-outs stand apart in the source and are kept apart here.

Test: Pharmacokinetics of decitabine in IVAP rabbit model
Format: in vivo, rabbits
Conditions: for MRT: read-out: Mean Residence Time; for Vd: read-out: Volume (Vz); for CMAX: read-out: Mean Cmax
Method: Decitabine was administered intravenously to IVAP rabbits (n=3) at three doses: 0.75, 1.5 and 2.5 mg/kg. It was also administered at 2.5mg/kg orally and through previously implanted intestinal and vascular access ports in the portal vein (PV), upper small intestine (USI), lower small intestine (LSI) and colon (IC). All routes received the same simple formulation of raw compound dissolved in cold saline. Care was taken to insure doses were delivered immediately (less than 15 minutes) after dissolving the powder and that the liquid formulation was kept on ice up to the time of administration. Blood samples were taken simultaneously from the median auricular artery and through a port in the portal vein at predetermined time points. Plasma was separated and kept frozen at −70° C. until shipped to Xenobiotic Laboratories for analysis.
Pharmacokinetic parameters were calculated using non-compartmental models with the Winnonlin v3.1 program.

[1] = rabbit, plasma, 2.5 mg/kg, 2.5 mg/kg IC
[2] = rabbit, plasma, 2.5 mg/kg, 2.5 mg/kg LSI
[3] = rabbit, plasma, 2.5 mg/kg, 2.5 mg/kg USI
[4] = rabbit, plasma, 2.5 mg/kg, LSI 2.5 mg/kg
[5] = rabbit, plasma, 2.5 mg/kg, USI 2.5 mg/kg
[6] = rabbit, plasma, Overall mean of all doses and routes
[7] = rabbit, plasma, iv, 0.75 mg/kg, 0.75 mg/kg IV
[8] = rabbit, plasma, iv, 1.5 mg/kg, 1.5 mg/kg IV
[9] = rabbit, plasma, iv, 2.5 mg/kg, 2.5 mg/kg IV
[10] = rabbit, plasma, other: portal vein (PV) via implanted access port, 2.5 mg/kg, 2.5 mg/kg PV
[11] = rabbit, plasma, po, 2.5 mg/kg, 2.5 mg/kg Oral
[12] = rabbit, plasma, po, 2.5 mg/kg, Oral 2.5 mg/kg

concentration SYS, individual (IV 1.5 mg/kg, 240 min, 1.5 mg/kg): 10.2 ng/mL
IV AUC0-inf, individual (IV 1.5 mg/kg, 1.5 mg/kg): 552.87 ng·h/mL and 612.34 ng·h/mL
IV AUC0-inf, individual (IV 2.5 mg/kg, 2.5 mg/kg): 896.21 ng·h/mL and 1128.11 ng·h/mL
Individual systemic Bioavailability (LSI 2.5 mg/kg): 44.48% and 51.78%
Volume (Vz) (Oral): 2.29 L/kg
clearance (Oral): 37.7 mL/min/kg
Individual systemic Bioavailability (PO 2.5 mg/kg, 2.5 mg/kg): 28.57% and 38.84%
systemic Bioavailability, Mean (PO 2.5 mg/kg, 2.5 mg/kg): 35.51%
Individual systemic Bioavailability (PV 2.5 mg/kg): 79.63% and 58.11% and 66.02%
systemic Bioavailability, Mean (PV 2.5 mg/kg): 67.92%
Individual systemic Bioavailability (USI 2.5 mg/kg): 84.33% and 72.64%
systemic Bioavailability, Mean (USI 2.5 mg/kg): 73.94%
bioavailability (rabbit, plasma (systemic), 2.5 mg/kg, IC 2.5 mg/kg, read-out: systemic Bioavailability, Mean): 34.3%
bioavailability (rabbit, plasma (systemic), 2.5 mg/kg, LSI 2.5 mg/kg, read-out: Individual systemic Bioavailability): 55%
bioavailability (rabbit, plasma (systemic), 2.5 mg/kg, LSI 2.5 mg/kg, read-out: systemic Bioavailability, Mean): 50.4%
bioavailability (rabbit, plasma (systemic), 2.5 mg/kg, USI 2.5 mg/kg, read-out: Individual systemic Bioavailability): 64.8%
bioavailability (rabbit, plasma (systemic), po, 2.5 mg/kg, PO 2.5 mg/kg, read-out: Individual systemic Bioavailability): 39.1%
AUC(0-inf) (rabbit, plasma (systemic, median auricular artery), 2.5 mg/kg, USI 2.5 mg/kg, read-out: Mean AUC0-inf in Systemic Samples): 837 ng·h/mL
AUC(0-inf) (rabbit, plasma (systemic, median auricular artery), po, 2.5 mg/kg, Oral 2.5 mg/kg, read-out: Mean AUC0-inf in Systemic Samples): 402 ng·h/mL
half-life [1]: 40.8 ± 0.6 min
MRT [1]: 64.2 ± 1.2 min
half-life [2]: 44.4 ± 3.6 min
MRT [2]: 55.2 ± 5.4 min
half-life [3]: 47.4 ± 5.4 min
MRT [3]: 55.2 ± 4.8 min
TMAX (rabbit, plasma, 2.5 mg/kg, IC 2.5 mg/kg): 15 min
clearance (rabbit, plasma, 2.5 mg/kg, IC, read-out: Clearance (converted)): 36.8 mL/min/kg
Vd (rabbit, plasma, 2.5 mg/kg, IC): 2.16 L/kg
TMAX [4]: 8.4 ± 5.76 min
CMAX [4]: 736 ± 95.6 ng/mL
clearance (rabbit, plasma, 2.5 mg/kg, LSI, read-out: Clearance (converted)): 37.2 mL/min/kg
Vd (rabbit, plasma, 2.5 mg/kg, LSI): 2.37 L/kg
bioavailability (rabbit, plasma, 2.5 mg/kg, PV 2.5 mg/kg, read-out: systemic Bioavailability, Mean): 67.9%
TMAX [5]: 4.98 min
CMAX [5]: 1220 ± 280 ng/mL
bioavailability (rabbit, plasma, 2.5 mg/kg, USI 2.5 mg/kg, read-out: systemic Bioavailability, Mean): 73.9%
clearance (rabbit, plasma, 2.5 mg/kg, USI, read-out: Clearance (converted)): 37.2 mL/min/kg
Vd (rabbit, plasma, 2.5 mg/kg, USI): 2.51 L/kg
half-life [6]: 43.2 ± 4.2 min
MRT [6]: 55.8 ± 6.6 min
half-life [7]: 43.8 ± 1.8 min
MRT [7]: 50.4 ± 1.8 min
AUC(0-inf) (rabbit, plasma, iv, 0.75 mg/kg, IV 0.75 mg/kg, read-out: IV AUC0-inf, Mean): 340 ng·h/mL
AUC(0-inf) (rabbit, plasma, iv, 0.75 mg/kg, IV 0.75 mg/kg, read-out: IV AUC0-inf, individual): 323 ng·h/mL
half-life [8]: 45 ± 2.4 min
MRT [8]: 49.8 ± 1.8 min
AUC(0-inf) (rabbit, plasma, iv, 1.5 mg/kg, IV 1.5 mg/kg, read-out: IV AUC0-inf, Mean): 574 ng·h/mL
AUC(0-inf) (rabbit, plasma, iv, 1.5 mg/kg, IV 1.5 mg/kg, read-out: IV AUC0-inf, individual): 557 ng·h/mL
half-life [9]: 35.4 ± 1.2 min
MRT [9]: 49.8 ± 9 min
AUC(0-inf) (rabbit, plasma, iv, 2.5 mg/kg, IV 2.5 mg/kg, read-out: IV AUC0-inf, Mean): 1060 ng·h/mL
AUC(0-inf) (rabbit, plasma, iv, 2.5 mg/kg, IV 2.5 mg/kg, read-out: IV AUC0-inf, individual): 1170 ng·h/mL
clearance (rabbit, plasma, iv, IV (overall), read-out: Clearance (converted)): 40 mL/min/kg
Vd (rabbit, plasma, iv, IV (overall)): 2.41 ± 0.41 L/kg
bioavailability (rabbit, plasma, other: portal vein (PV) port, 2.5 mg/kg, PV 2.5 mg/kg, read-out: systemic Bioavailability, Mean): 68%
half-life [10]: 46.2 ± 4.2 min
MRT [10]: 48 ± 3.6 min
clearance (rabbit, plasma, other: portal vein (PV) via implanted access port, 2.5 mg/kg, PV, read-out: Clearance (converted)): 55.2 mL/min/kg
Vd (rabbit, plasma, other: portal vein (PV) via implanted access port, 2.5 mg/kg, PV): 3.63 L/kg
bioavailability (rabbit, plasma, other: upper small intestine (USI) port, 2.5 mg/kg, USI 2.5 mg/kg, read-out: systemic Bioavailability, Mean): 74%
half-life [11]: 41.4 ± 15.6 min
MRT [11]: 72.6 ± 24 min
TMAX [12]: 25.2 ± 8.4 min
CMAX [12]: 335 ± 134 ng/mL
bioavailability (rabbit, plasma, po, 2.5 mg/kg, PO 2.5 mg/kg, read-out: systemic Bioavailability, Mean): 35.5%
AUC(0-inf) (rabbit, portal vein plasma, 2.5 mg/kg, LSI 2.5 mg/kg, read-out: Mean AUC0-inf in Portal Vein): 586 ng·h/mL
AUC(0-inf) (rabbit, portal vein plasma, 2.5 mg/kg, USI 2.5 mg/kg, read-out: Mean AUC0-inf in Portal Vein): 833 ng·h/mL
AUC(0-inf) (rabbit, portal vein plasma, po, 2.5 mg/kg, Oral 2.5 mg/kg, read-out: Mean AUC0-inf in Portal Vein): 397 ng·h/mL
AUC(0-inf) (rabbit, systemic plasma (median auricular artery), 2.5 mg/kg, LSI 2.5 mg/kg, read-out: Mean AUC0-inf in Systemic Samples): 571 ng·h/mL
SMILES: Nc1ncn([C@H]2C[C@H](O)[C@@H](CO)O2)c(=O)n1 [decitabine, 5-aza-2′-deoxycytidine]
